Where a name gives a salt, the structure may show the parent alone. Read-outs that look alike come from different tables or passages of the source.
Legend:
[1] = target: BA/F3-KRAS(G12D) murine pro-B cell line stably expressing KRAS(G12D) (Homo sapiens, UniProt P01116, G12D, cells depend on it); assay: CellTiter-Glo cancer cell line proliferation assay, BA/F3-KRAS(G12D); assay type: cell-based; details: 24 hr, read-out: BAF3 at 24 hrs, IC50
Protocol: The following cancer cell lines were employed: AsPC-1 human pancreatic adenocarcinoma (ATCC, #CRL-1682); A-427 human lung carcinoma (ATCC, #HTB-53); BA/F3-KRAS(G12D) murine pro-B cell line stably expressing KRAS(G12D) (Precedo, Hefei, China). Cell lines were cultured according to ATCC and recommendations. BA/F3-KRAS(G12D) cells were cultured in RPMI 1640 media with 10% fetal calf serum, 100 units/mL penicillin and […] streptomycin, and 1% glutamine.
(§1) CellTiter-Glo® Reagent Cancer Cell Line Proliferation Assays
Cells were plated in 96-well tissue culture plates at 4,000 cells/well and incubated at 37° C./5% CO2 for 24 hr in 100 μl of media. 3-fold serial dilutions of each test compound were prepared ranging from 20 μM to 1.02 nM. Cells were then treated with test compounds at various concentrations with a final concentration of 0.5% DMSO/well, and then incubated at 37° C./5% CO2 for 24 hr. 100 μl of CellTiter-Glo® Reagent (Promega Corporation, Madison, WI) was added to each well and processed according manufacturer's protocol. Results were analyzed and IC50-values were calculated in GraphPad 7 software.

KRAS(G12D)/SOS1 = target: T1, KRAS(G12D)/SOS1 (Homo sapiens, UniProt P01116, G12D); assay: KRAS(G12D)/SOS1 homogeneous time-resolved fluorescence (HTRF) assay; assay type: binding; details: absence of GTP, 4° C. for 3 hr
T1 construct: purchased Cisbio 63ADK000CB16PEG
Protocol: The test compound was mixed and incubated with reaction components, incubated in a sealed plate at 4° C. for 3 hr and fluorescence was measured using a PerkinElmer Envision plate reader.

[2] = system: A-427 human lung carcinoma; assay: CellTiter-Glo cancer cell line proliferation assay, A-427; assay type: cell-based; details: read-out: A427 at 24 hrs, IC50
Protocol: (§2) Cell lines were cultured according to ATCC and recommendations.
as §1
(§3) Cells were plated in 96-well tissue culture plates at 4,000 cells/well and incubated at 37° C./5% CO2 for 24 hr in 100 μl of media. […] Cells were then treated with test compounds at various concentrations with a final concentration of 0.5% DMSO/well, and then incubated at 37° C./5% CO2 for 24 hr. 100 μl of CellTiter-Glo® Reagent (Promega Corporation, Madison, WI) was added to each well and processed according manufacturer's protocol. Results were analyzed and IC50-values were calculated in GraphPad 7 software.

KRAS(G12D) = target: T2, KRAS(G12D) (Homo sapiens, UniProt P01116, G12D); assay: SW1990 WB assay (degradation DC50, Dmax); assay type: cell-based; details: Western blot, SW1990 cells
T2 construct: endogenous in cells; host or cells: SW1990

[3] = system: AsPC-1 human pancreatic adenocarcinoma; assay: CellTiter-Glo cancer cell line proliferation assay, AsPC-1; assay type: cell-based
Protocol: as §2, §1, §3

T1 sequence (P01116 1-188 isoform P01116-2 G12D): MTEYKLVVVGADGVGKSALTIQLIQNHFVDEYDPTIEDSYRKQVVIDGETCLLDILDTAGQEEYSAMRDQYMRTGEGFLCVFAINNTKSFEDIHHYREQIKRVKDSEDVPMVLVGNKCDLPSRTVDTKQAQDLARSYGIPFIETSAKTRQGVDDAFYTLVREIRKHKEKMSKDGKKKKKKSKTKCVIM
T2 sequence (P01116 1-188 isoform P01116-2 G12D): as above
BA/F3-KRAS(G12D) murine pro-B cell line stably expressing KRAS(G12D), sequence (P01116 whole entry G12D): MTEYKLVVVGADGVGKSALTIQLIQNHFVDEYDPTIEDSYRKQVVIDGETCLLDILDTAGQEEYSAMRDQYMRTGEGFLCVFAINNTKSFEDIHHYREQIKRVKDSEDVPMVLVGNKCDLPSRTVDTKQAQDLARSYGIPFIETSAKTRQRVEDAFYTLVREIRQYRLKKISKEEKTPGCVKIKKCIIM

Row | Structure (SMILES) | GI50 [1] | IC50 (KRAS(G12D)/SOS1) | IC50 ([2]; Homo sapiens, A-427, 24 hr) | DC50 (KRAS(G12D)) | Dmax (KRAS(G12D)) | IC50 ([3]; Homo sapiens, ASPC1, 24 hr) | WB data SW1990 DMax (KRAS(G12D)) | IC50 ([3]; 24 hr, read-out: ASPC1 at 24 hrs, IC50) | IC50 ([2]; 24 hr)
1 | C#Cc1cccc2cccc(-c3ncc4c(N5CC6CCC(C5)N6)nc(OCCN5CCN(C(=O)C6CCN(c7ccc8c(c7)C(=O)N(C7CCC(=O)NC7=O)C8=O)CC6)CC5)nc4c3F)c12 (centres unmarked) [Compound 4, 5-(4-(4-(2-((4-(3,8-diazabicyclo[3.2.1]octan-3-yl)-7-(8-ethynylnaphthalen-1-yl)-8-fluoropyrido[4,3-d]pyrimidin-2-yl)oxy)ethyl)piperazine-1-carbonyl)piperidin-1-yl)-2-(2,6-dioxopiperidin-3-yl)isoindoline-1,3-dione formate] | > 1000 nM | > 1000 nM | > 1000 nM |  |  |  |  |  | 
2 | C#Cc1cccc2cc(O)cc(-c3ncc4c(N5CC6CCC(C5)N6)nc(OCC5(CN6CCN(CC7CCN(c8ccc9c(c8)CN(C)C9=O)CC7)CC6)CC5)nc4c3F)c12 [Compound 81] |  | < 100 nM | 100 to 1000 nM | > 1000 nM | 10 to 50% | 100 to 1000 nM |  |  | 
3 | C#Cc1cccc2cc(O)cc(-c3nc(OC)c4c(N5CC6CCC(C5)N6)nc(OCC5(CN6CCN(CC7CCN(c8ccc9c(c8)CN(C8CCC(=O)NC8=O)C9=O)CC7)CC6)CC5)nc4c3F)c12 (centres unmarked) [Compound 78] |  | < 100 nM | < 100 nM | < 100 nM | > 50% | < 100 nM |  |  | 
4 | C#Cc1c(F)ccc2cc(O)cc(-c3nc(OC)c4c(N5CC6CCC(C5)N6C(=O)C(F)(F)F)nc(OCC5(CN6CCN(CC7CCN(c8ccc9c(c8)CN(C8CCC(=O)NC8=O)C9=O)CC7)CC6)CC5)nc4c3F)c12 (centres unmarked) [Compound 93] |  | < 100 nM | > 1000 nM | 100 to 1000 nM | 10 to 50% | 100 to 1000 nM |  |  | 
5 | Cc1ncsc1-c1ccc(CNC(=O)C2CC(O)CN2C(=O)C(NC(=O)C2CCN([C@H]3C[C@@H](COc4nc(N5CC6CCC(C5)N6)c5cnc(-c6cccc7cccc(Cl)c67)cc5n4)N(C)C3)CC2)C(C)(C)C)cc1 (stereo in doubt) [Compound 20, 1-[(3S,5S)-5-({[7-(8-chloronaphthalen-1-yl)-4-{3,8-diazabicyclo[3.2.1]octan-3-yl}pyrido[4,3-d]pyrimidin-2-yl]oxy}methyl)-1-methylpyrrolidin-3-yl]-N-[(2S)-1-[(2 S,4R)-4-hydroxy-2-({[4-(4-methyl-1,3-thiazol-5-yl)phenyl]methyl}carbamoyl)pyrrolidin-1-yl]-3,3-dimethyl-1-oxobutan-2-yl]piperidine-4-carboxamide] | > 1000 nM | > 1000 nM |  |  |  |  |  |  | 
6 | C#Cc1cccc2cc(O)cc(-c3ncc4c(N5CC6CCC(C5)N6)nc(OCC5(CN6CCN(CC7CCN(CCC(=O)N[C@@H](C(=O)N8C[C@@H](O)C[C@@H]8C(=O)NCc8ccc(-c9scnc9C)cc8)C(C)(C)C)CC7)CC6)CC5)nc4c3F)c12 [Compound 83] |  | < 100 nM | > 1000 nM | > 1000 nM | 10 to 50% | > 1000 nM |  |  | 
7 | C#Cc1cccc2cc(O)cc(-c3ncc4c(N5CC6CCC(C5)N6)nc(OCC5(CN6CCN(CC7CCN(c8ccc9c(c8)C(=O)N(C8CCC(=O)NC8=O)C9)CC7)CC6)CC5)nc4c3F)c12 (centres unmarked) [Compound 86] |  |  | < 100 nM | < 100 nM | > 50% | < 100 nM |  |  | 
8 | C#Cc1cccc2cc(O)cc(-c3ncc4c(N5CC6CCC(C5)N6C(=O)C(F)(F)F)nc(OCC5(CN6CCN(CC7CCN(c8ccc9c(c8)CN(C8CCC(=O)NC8=O)C9=O)CC7)CC6)CC5)nc4c3F)c12.Cl (centres unmarked) [Compound 87] |  |  |  |  |  |  | B (Dmax = 10-50%) | 100 to 1000 nM | 100 to 1000 nM
9 | C#Cc1cccc2cc(O)cc(-c3ncc4c(N5CC6CCC(C5)N6)nc(OCC5(CN(C)CC6CCN(c7ccc8c(c7)CN(C7CCC(=O)NC7=O)C8=O)CC6)CC5)nc4c3F)c12 (centres unmarked) [Compound 84] |  |  | > 1000 nM | 100 to 1000 nM | > 50% | > 1000 nM |  |  | 
10 | C#Cc1c(F)ccc2cc(O)cc(-c3ncc4c(N5CC6CCC(C5)N6)nc(OCC5(CN6CCC(C7CCN(c8ccc9c(c8)CN(C8CCC(=O)NC8=O)C9=O)CC7)CC6)CC5)nc4c3F)c12 (centres unmarked) [Compound 102] |  | < 100 nM | 100 to 1000 nM | 100 to 1000 nM | 10 to 50% | < 100 nM |  |  | 
11 | C#Cc1cccc2cc(O)cc(-c3ncc4c(N5CC6CCC(C5)N6)nc(OCC5(CN6CCN(CC7CCN(c8ccc9c(c8)CN(C8CCC(=O)NC8=O)C9=O)CC7)CC6)CC5)nc4c3F)c12 (centres unmarked) [Compound 57] |  | < 100 nM | < 100 nM | < 100 nM | > 50% | < 100 nM |  |  | 
12 | C#Cc1cccc2cc(O)cc(-c3ncc4c(N5CC6CCC(C5)N6)nc(OCC5(CN6CCN(CC7CCN(c8ccc(NC9CCC(=O)NC9=O)cc8)CC7)CC6)CC5)nc4c3F)c12 (centres unmarked) [Compound 95] |  | < 100 nM | 100 to 1000 nM | > 1000 nM | < 10% | 100 to 1000 nM |  |  | 
13 | C=CC(=O)N1CCN(c2nc(OCC3(CN4CCN(CC5CCN(c6ccc7c(c6)CN(C6CCC(=O)NC6=O)C7=O)CC5)CC4)CC3)nc3c2CCN(c2cccc4cccc(Cl)c24)C3)C[C@@H]1CC#N (some centres unmarked) [Compound 98] |  | > 1000 nM | > 1000 nM | > 1000 nM | < 10% | > 1000 nM |  |  | 
14 | C#Cc1c(F)ccc2cc(O)cc(-c3ncc4c(N5CC6CCC(C5)N6)nc(OCC5(CN6CCN(CC7CN(c8ccc9c(c8)CN(C8CCC(=O)NC8=O)C9=O)C7)CC6)CC5)nc4c3F)c12 (centres unmarked) [Compound 103] |  | < 100 nM | > 1000 nM | > 1000 nM | 10 to 50% | 100 to 1000 nM |  |  | 
15 | C#Cc1c(F)ccc2cc(O)cc(-c3ncc4c(N5CC6CCC(C5)N6C(=O)CC)nc(OCC5(CN6CCN(CC7CCN(c8ccc9c(c8)CN(C8CCC(=O)NC8=O)C9=O)CC7)CC6)CC5)nc4c3F)c12 (centres unmarked) [Compound 91] |  |  | > 1000 nM | > 1000 nM | < 10% | > 1000 nM |  |  | 
16 | C#Cc1cccc2cc(O)cc(-c3ncc4c(N5CC6CCC(C5)N6)nc(OCC5(CN6CCN(CC7CCN(c8ccc9c(c8)CN(C8CCC(=O)NC8=O)C9=O)CC7)[C@@H](C7CC7)C6)CC5)nc4c3F)c12 (some centres unmarked) [Compound 96] |  | < 100 nM | 100 to 1000 nM | > 1000 nM | 10 to 50% | < 100 nM |  |  | 
17 | C#Cc1c(F)ccc2cc(O)cc(-c3nc(OC)c4c(N5CC6CCC(C5)N6)nc(OCC5(CN6CCN(CC7CCN(c8ccc9c(c8)CN(C8CCC(=O)NC8=O)C9=O)CC7)CC6)CC5)nc4c3F)c12 (centres unmarked) [Compound 100] |  | < 100 nM | 100 to 1000 nM | > 1000 nM | 10 to 50% | < 100 nM |  |  | 
18 | C#Cc1c(F)ccc2cc(O)cc(-c3ncc4c(N5CC6CCC(C5)N6)nc(OCC5(CN6CCC(CN7CCN(c8ccc9c(c8)CN(C8CCC(=O)NC8=O)C9=O)CC7)CC6)CC5)nc4c3F)c12 (centres unmarked) [Compound 99] |  | < 100 nM | > 1000 nM | < 100 nM | > 50% | < 100 nM |  |  | 

From patent US20250018047A1, “METHODS AND COMPOSITIONS FOR TARGETED PROTEIN DEGRADATION” (Ranok Therapeutics (Hangzhou) Co. Ltd., priority 2021, published 2025)
